In patent publication EP4813979A1, “COMPOUND FOR EGFR PROTEIN DEGRADATION AND USE THEREOF” (TYK Medicines, Inc., priority 2023, dated 2025):
Like-named read-outs stand apart in the source and are kept apart here.

Key:
HCC827 = test: Cell anti-proliferation experiment (CTG); format: cell-based; conditions: Homo sapiens, HCC827 (exon 19 deletion), class symbol
Description: (§1) H1975 has an EGFR: T790M/L858R double mutation, PC-9 has an EGFR exon 19 deletion, and HCC827 has an exon 19 deletion mutation. Baf3-19del- T790M -C797S (Baf3-DTC) is a stable Ba/F3 clone expressing exogenous EGFR gene bearing T790M, C797S, and […] triple amino acid mutations, purchased from KYinno. Baf3-L858R-T790M - C797S (Baf3-LTC) is a stable Ba/F3 clone expressing exogenous EGFR gene bearing […], T790M, and C797S triple mutations, purchased from KYinno. A549 is a wild-type EGFR, purchased from Nanjing Kebai Biotechnology. A431 is a wild-type EGFR, purchased from Shanghai Xinyu Biotechnology. CellCounting-Lite2.0, Trypsin EDTA, 37°C CO2 incubator, cell counter, EnVision Serial No. 1050454.
(§2) • A) Digested logarithmic phase cells with Trypsin EDTA, added culture medium to stop the reaction, and mixing well with a pipette to prepare a cell suspension. • B) Used Vi-cell to determine cell concentration, and prepared a suspension of 15,000-25,000 cells per milliliter according to the experimental purpose and cell characteristics. • C) After prepared the cell suspension, mixed it gently and added 100 µL to each well, so that the cell density to be tested is 1500-2500 per well.
(§3) • A) Weighed approximately 2 mg the compound and calculated the required volume of DMSO according to the formula: Compound mass (mg) * Compound purity (%) / Compound molecular weight * 1000. • B) Placed the inoculated cell culture plate into an incubator and incubated for about 24 hours. Then added compounds of varying concentrations. • C) Diluted the 10mM compound stock solution to […] with culture medium, and added the […] compound solution to the second column of the deep well plate in sequence, and added […] culture medium containing 0.5% DMSO to the third to eleventh columns. • D) Gradient dilution: Taked 125 µL solution from the second column and added it to the third column, mix well; then taked 125 µL solution from the third column and added it to the fourth column, repeated this operation until the tenth column. • E) Used a multichannel pipette, aspirated 25 µL the compound from the deep-well plate and added it to a 96-well culture plate. Repeated this process three times for each compound on the 96-well plate. This will ultimately create a concentration gradient of up to 10,000 nM at a 1:4 ratio on the 96-well plate.
(§4) • A) The effects of the compound were observed under an inverted microscope after the 96-well plate was incubated in an incubator for 72 hours. • B) Added 25 µL CTG solution to each well, placed on a shaker for 10 minutes, and read the […] of each well.
(§5) Calculate the % Cell Viability using the following formula: %Cell Viability = 100% × (Lum_Sample−Lum_LC)/(Lum_HC−Lum_LC) [formula] • Lum_HC: Cell readings from the 0.1% DMSO control group • Lum_Sample: Cell readings with added compound • Lum_LC: Blank culture medium reading
(§6) The IC50 value was obtained by curve fitting using GraphPad Prism 8 software.

[1] = tested on: Baf3-19del- T790M -C797S (Baf3-DTC); test: Cell anti-proliferation experiment (CTG); format: cell-based; conditions: class symbol
Description: as §1, §2, §3, §4, §5, §6

PC-9 = test: Cell anti-proliferation experiment (CTG); format: cell-based; conditions: Homo sapiens, PC-9 (EGFR exon 19 deletion), class symbol
Description: as §1, §2, §3, §4, §5, §6

A549 = test: Cell anti-proliferation experiment (CTG); format: cell-based; conditions: Homo sapiens, A549 (wild-type EGFR), class symbol
Description: as §1, §2, §3, §4, §5, §6

A431 = test: Cell anti-proliferation experiment (CTG); format: cell-based; conditions: Homo sapiens, A431 (wild-type EGFR), class symbol
Description: as §1, §2, §3, §4, §5, §6

[2] = tested on: Baf3-L858R-T790M - C797S (Baf3-LTC); test: Cell anti-proliferation experiment (CTG); format: cell-based; conditions: class symbol
Description: as §1, §2, §3, §4, §5, §6

H1975 = test: Cell anti-proliferation experiment (CTG); format: cell-based; conditions: Homo sapiens, H1975 (EGFR T790M/L858R), class symbol
Description: as §1, §2, §3, §4, §5, §6

[3] = molecular target: EGFR in Baf3-19del-T790M-C797S (Homo sapiens, UniProt P00533, C797S/DEL746-750/T790M); test: EGFR PROTAC HTRF experiment (total EGFR degradation); format: cell-based
Chain of EGFR in Baf3-19del-T790M-C797S (P00533 with tags, fused parts or gaps DEL746-750/T790M/C797S): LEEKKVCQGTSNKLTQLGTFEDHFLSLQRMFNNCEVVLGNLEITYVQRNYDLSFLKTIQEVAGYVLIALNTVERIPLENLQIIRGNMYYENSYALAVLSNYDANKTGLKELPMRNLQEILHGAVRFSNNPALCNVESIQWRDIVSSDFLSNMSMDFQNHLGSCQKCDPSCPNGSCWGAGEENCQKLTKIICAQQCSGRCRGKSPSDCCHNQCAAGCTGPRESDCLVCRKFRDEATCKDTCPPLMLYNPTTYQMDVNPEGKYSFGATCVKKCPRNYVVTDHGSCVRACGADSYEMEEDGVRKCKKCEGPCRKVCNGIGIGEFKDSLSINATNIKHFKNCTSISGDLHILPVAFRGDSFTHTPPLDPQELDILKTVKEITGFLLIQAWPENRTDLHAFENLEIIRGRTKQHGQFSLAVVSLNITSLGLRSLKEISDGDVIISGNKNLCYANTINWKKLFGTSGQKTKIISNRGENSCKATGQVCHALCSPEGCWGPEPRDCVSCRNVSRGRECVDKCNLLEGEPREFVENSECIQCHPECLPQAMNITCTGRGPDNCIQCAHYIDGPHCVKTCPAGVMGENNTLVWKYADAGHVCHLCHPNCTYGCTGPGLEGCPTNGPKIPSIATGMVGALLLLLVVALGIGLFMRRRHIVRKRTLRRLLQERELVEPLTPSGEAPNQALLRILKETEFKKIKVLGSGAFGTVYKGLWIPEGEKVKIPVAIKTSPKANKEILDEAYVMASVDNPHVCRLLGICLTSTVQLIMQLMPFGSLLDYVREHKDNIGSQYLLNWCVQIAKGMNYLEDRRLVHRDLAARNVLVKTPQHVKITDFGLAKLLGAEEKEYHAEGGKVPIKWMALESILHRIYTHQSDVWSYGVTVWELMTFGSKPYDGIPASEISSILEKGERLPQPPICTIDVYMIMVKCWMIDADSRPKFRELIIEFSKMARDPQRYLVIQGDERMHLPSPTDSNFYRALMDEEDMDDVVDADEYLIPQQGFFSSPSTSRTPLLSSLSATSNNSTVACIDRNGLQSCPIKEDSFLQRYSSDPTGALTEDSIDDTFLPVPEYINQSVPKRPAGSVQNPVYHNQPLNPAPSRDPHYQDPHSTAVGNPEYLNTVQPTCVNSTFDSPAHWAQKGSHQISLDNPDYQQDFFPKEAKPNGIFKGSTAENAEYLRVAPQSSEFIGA
Method: (§7) [table] Among them, B[…] -C797S (abbreviated as Baf3-DTC) is a stable Ba/F3 clone expressing exogenous EGFR gene bearing T790M, C797S and […] triple amino acid mutations, purchased from KYinno; Baf3-L858R-T790M - C797S (abbreviated as Baf3-LTC) is a stable Ba/F3 clone expressing exogenous EGFR gene bearing […], T790M, C797S triple mutations, purchased from KYinno. [table] [table] Dilutded Eu and d2 antibodies 2μl per well with detection buffer 20-fold. Then mixed the two antibody vials thoroughly. [table] Opened EnVision , locate the HTRF program, configured the board, and then read […]. The fitted curve, DC50 and Dmax of this compound could be generated using GraphPad Prism .

[4] = molecular target: EGFR in Baf3-L858R-T790M-C797S (Homo sapiens, UniProt P00533, C797S/L858R/T790M); test: as above; format: cell-based
Chain of EGFR in Baf3-L858R-T790M-C797S (P00533 25-1210 T790M/C797S/L858R): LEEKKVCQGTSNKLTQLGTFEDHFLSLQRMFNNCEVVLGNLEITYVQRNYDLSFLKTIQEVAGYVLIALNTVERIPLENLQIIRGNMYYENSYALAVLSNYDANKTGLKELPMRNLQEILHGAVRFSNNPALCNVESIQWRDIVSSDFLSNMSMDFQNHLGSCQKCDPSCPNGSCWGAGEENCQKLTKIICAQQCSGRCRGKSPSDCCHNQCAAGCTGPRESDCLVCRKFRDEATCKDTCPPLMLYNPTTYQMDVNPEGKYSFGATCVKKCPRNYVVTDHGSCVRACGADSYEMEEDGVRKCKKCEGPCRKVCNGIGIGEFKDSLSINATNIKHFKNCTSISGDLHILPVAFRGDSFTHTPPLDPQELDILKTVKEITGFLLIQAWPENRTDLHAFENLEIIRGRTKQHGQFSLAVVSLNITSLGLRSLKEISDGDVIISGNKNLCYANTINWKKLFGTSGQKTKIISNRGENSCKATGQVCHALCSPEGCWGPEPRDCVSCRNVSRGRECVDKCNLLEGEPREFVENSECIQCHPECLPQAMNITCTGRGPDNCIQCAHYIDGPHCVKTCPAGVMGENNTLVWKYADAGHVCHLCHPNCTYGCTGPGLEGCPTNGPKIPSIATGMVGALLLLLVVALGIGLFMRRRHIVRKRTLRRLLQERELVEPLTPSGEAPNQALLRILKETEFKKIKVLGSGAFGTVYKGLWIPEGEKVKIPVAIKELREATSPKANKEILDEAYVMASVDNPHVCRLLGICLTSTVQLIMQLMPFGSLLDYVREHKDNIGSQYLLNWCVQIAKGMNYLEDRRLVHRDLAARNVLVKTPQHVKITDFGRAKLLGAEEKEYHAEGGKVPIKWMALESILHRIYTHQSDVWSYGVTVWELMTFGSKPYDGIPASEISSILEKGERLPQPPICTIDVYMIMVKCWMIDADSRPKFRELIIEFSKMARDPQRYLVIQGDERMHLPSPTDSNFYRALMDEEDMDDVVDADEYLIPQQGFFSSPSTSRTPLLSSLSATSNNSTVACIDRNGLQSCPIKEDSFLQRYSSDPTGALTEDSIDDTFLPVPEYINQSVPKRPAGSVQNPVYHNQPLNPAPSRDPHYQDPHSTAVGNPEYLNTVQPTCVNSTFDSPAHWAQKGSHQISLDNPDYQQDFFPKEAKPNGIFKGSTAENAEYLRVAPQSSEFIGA
Method: as §7

[5] = Pharmacokinetic tests in male SD rats; format: in vivo; conditions: oral gavage (po), 10 mg/kg, plasma; for AUC(0-inf) / AUC(0-t) / Cmax / MRT last / Tmax: rat
Method: Three healthy adult male SD rats, 6-8 weeks old, weighing 200-300 grams.
EDTA-Na2 anticoagulant, weighed 11.2 g EDTA-Na2 and placed it in a reagent bottle. Added 100 mL physiological saline and shaked to dissolve completely. After preparation, dispensed into 1.5 mL centrifuge tubes, each containing approximately 20 µL, for whole blood sample collection.
Accurately weighed approximately 10 mg the sample to be tested, added 10% of the converted total volume of DMSO to dissolve it, and then slowly added 90% of the total volume of 0.5% MC solvent while stirring. Sonicated and vortex to mix thoroughly to obtain a solution of the preparation that is considered to be homogeneous, with a concentration of 1 mg/mL. Prepared fresh immediately before use.
Piped 0.2 mL the sample into a 1.5 mL centrifuge tube and store at -80°C for analysis of the concentration of the drug solution.
Animals were housed in rat cages and fasted for at least 10 hours starting the day before the experiment, but water was allowed. On the day of the experiment, each animal was weighed and marked on its tail. Blank blood samples were collected before drug administration. Blood was collected via tail vein.
• Route of administration: Oral gavage (po); • Dosage concentration: 1 mg/ml; • Dosage: 10 mg/kg; • Dosage volume: 10 mL/kg; • Procedure: Hold the rat upright with your left hand wearing a bite-proof glove, insert the gavage needle into the throat through the mouth, and insert the needle when feeling no obvious resistance. Then inject the drug into the stomach.
Whole blood (0.1-0.2 ml) was collected from test animals at 0.5 h, 1 h, 2 h, 4 h, 6 h, 8 h, 12 h, and 24 h after drug administration. The samples were placed in EDTA-Na 2 anticoagulant tubes, inverted 3-4 times to mix, and centrifuged at 4°C, 2000 g for 5 min to separate the supernatant plasma. The plasma was promptly transferred to -80°C for storage until analysis. Blood was collected via tail vein.
A quantitative detection method for the analyte was established using Shimadzu liquid chromatography and Triple Quad™ 6500+AB mass spectrometry. The concentration of the parent drug in plasma was analyzed. The analytical results were controlled for variation using quality control samples, with the accuracy of the quality control samples expected to be between 80% and 120%.
The main pharmacokinetic parameters were calculated using a non-compartmental model in Winnonlin Phoenix software. These parameters included the area under the curve (AUC(0-t) and AUC(0-∞)), elimination half-life (T1/2), maximum plasma concentration (Cmax ), and time to reach maximum plasma concentration (Tmax).The results are shown in Table 3.

[6] = read-out: Baf3-DTC DC50; Baf3-DTC, incubated 16 hours, HTRF total EGFR
[7] = read-out: Baf3-LTC DC50; Baf3-LTC, incubated 16 hours, HTRF total EGFR
[8] = Baf3-DTC, incubated 16 hours, HTRF total EGFR; read-out: Baf3-DTC DC50
[9] = Baf3-DTC, incubated 16 hours, HTRF total EGFR; read-out: Baf3-DTC Dmax
[10] = Baf3-LTC, incubated 16 hours, HTRF total EGFR; read-out: Baf3-LTC DC50
[11] = Baf3-LTC, incubated 16 hours, HTRF total EGFR; read-out: Baf3-LTC Dmax

Compound | IC50 (HCC827; 72 hours) [nM] | IC50 ([1]; 72 hours) [nM] | IC50 (PC-9; 72 hours) [nM] | IC50 (A549; 72 hours) [nM] | IC50 (A431; A-431, 72 hours) [nM] | IC50 ([2]; 72 hours) [nM] | IC50 (H1975; NCI-H1975, 72 hours) [nM] | DC50 [3, 6] [nM] | Dmax ([3]; read-out: Baf3-DTC Dmax) [%] | DC50 [4, 7] [nM] | Dmax ([4]; read-out: Baf3-LTC Dmax) [%] | IC50 (HCC827; HCC827, 72 h) [nM] | IC50 ([1]; 72 h) [nM] | IC50 (PC-9; PC-9, 72 h) [nM] | IC50 (A549; A549, 72 h) [nM] | IC50 (A431; A-431, 72 h) [nM] | IC50 ([2]; 72 h) [nM] | IC50 (H1975; NCI-H1975, 72 h) [nM] | DC50 [3, 8] [nM] | DC50 [4, 10] [nM] | other results
CCc1cc(Nc2ncc(Cl)c(Nc3ccc4nccnc4c3P(C)(C)=O)n2)c(OC)cc1N1CCN(C(=O)CN2CCC(c3cc4c(cc3F)c(N3CCC(=O)NC3=O)nn4C)C(F)(F)C2)CC1 (centres unmarked) [TA-007] | 10 to 100 | 10 to 100 | 100 to 1000 | 10 to 100 | 10 to 100 | < 10 | 100 to 1000 | < 10 | 70 to 100 | < 10 | 70 to 100 | – | – | – | – | – | – | – | – | – | –
CCc1cc(Nc2ncc(Cl)c(Nc3ccccc3N(C)S(C)(=O)=O)n2)c(OC)cc1N1CCN(C(=O)CN2CCC(c3cc4c(cc3F)c(N3CCC(=O)NC3=O)nn4C)C(F)(F)C2)CC1 (centres unmarked) [TA-013] | – | – | – | – | – | – | – | – | – | – | – | > 1000 | < 10 | > 1000 | > 1000 | > 1000 | 10 to 100 | 10 to 100 | < 10 | < 10 | Dmax [3, 9]: 70 to 100%; Dmax [4, 11]: 70 to 100%
CCc1ccc(Nc2nc(Nc3cc(CC)c(N4CCN(C(=O)CN5CCC(c6cc7c(cc6F)c(N6CCC(=O)NC6=O)nn7C)C(F)(F)C5)CC4)cc3OC)ncc2Cl)c(P(C)(C)=O)c1 (centres unmarked) [TA-035] | – | – | – | – | – | – | – | – | 70 to 100 | – | 70 to 100 | – | – | – | – | – | – | – | 10 to 100 | 10 to 100 | –
CCc1cc(Nc2ncc(Cl)c(Nc3ccccc3P3(=O)CCCC3)n2)c(OC)cc1N1CCN(C(=O)CN2CCC(c3cc4c(cc3F)c(N3CCC(=O)NC3=O)nn4C)C(F)(F)C2)CC1 (centres unmarked) [TA-045] | – | – | – | – | – | – | – | – | 70 to 100 | – | 70 to 100 | – | – | – | – | – | – | – | 10 to 100 | 10 to 100 | –
CCc1cc(Nc2ncc(Br)c(Nc3ccccc3P3(=O)CCCC3)n2)c(OC)cc1N1CC2(CCN(C(=O)CN3CCC(c4cc5c(cc4F)c(N4CCC(=O)NC4=O)nn5C)C(F)(F)C3)CC2(F)F)C1 (centres unmarked) [TB-010] | – | – | – | – | – | – | – | – | – | – | – | 10 to 100 | 10 to 100 | 100 to 1000 | > 1000 | > 1000 | 10 to 100 | < 10 | < 10 | < 10 | Dmax [3, 9]: 70 to 100%; Dmax [4, 11]: 70 to 100%; HL [5]: 3.59 h; AUC(0-inf) [5]: 5800 ng·h/mL; AUC(0-t) [5]: 5730 ng·h/mL; Cmax [5]: 482 ng/mL; MRT last [5]: 6.6 h; Tmax [5]: 4 h
CCc1cc(Nc2ncc(Br)c(Nc3ccccc3P(C)(C)=O)n2)c(OC)cc1N1CCN(C(=O)CN2CCC(c3cc4c(cc3F)c(N3CCC(=O)NC3=O)nn4C)C(F)(F)C2)CC1 (centres unmarked) [TC-158] | 100 to 1000 | < 10 | 100 to 1000 | > 1000 | > 1000 | < 10 | 10 to 100 | < 10 | 70 to 100 | < 10 | 70 to 100 | – | – | – | – | – | – | – | – | – | HL [5]: 2.81 h; AUC(0-inf) [5]: 5610 ng·h/mL; AUC(0-t) [5]: 5590 ng·h/mL; Cmax [5]: 533 ng/mL; MRT last [5]: 6.02 h; Tmax [5]: 2.67 h
CCc1cc(Nc2ncc(Br)c(Nc3ccccc3P(C)(C)=O)n2)c(OC)cc1N1CC2(CCN(C(=O)CN3CCC(c4cc5c(cc4F)c(N4CCC(=O)NC4=O)nn5C)C(F)(F)C3)CC2)C1 (centres unmarked) [TC-164] | 10 to 100 | < 10 | 100 to 1000 | > 1000 | > 1000 | < 10 | < 10 | < 10 | 70 to 100 | < 10 | 70 to 100 | – | – | – | – | – | – | – | – | – | –
CCc1cc(Nc2ncc(Cl)c(Nc3ccccc3C(=O)NC)n2)c(OC)cc1N1CCN(CCN2CCC(c3cc4c(cc3F)c(N3CCC(=O)NC3=O)nn4C)CC2)CC1 [TD-001] | – | – | – | – | – | – | – | – | – | – | – | < 10 | 10 to 100 | 100 to 1000 | 10 to 100 | > 1000 | 10 to 100 | < 10 | 100 to 1000 | 10 to 100 | Dmax [3, 9]: 50 to 70%; Dmax [4, 11]: 50 to 70%
